# Patent publication US9439916B2, “Composition for decelerating the aging in the organism and for extending the life time thereof and the use of said composition” (MITOTECH SA, priority 2007, dated 2016)
# Key:
# Type in all cases: in vivo
# Drosophila melanogaster = assay: Life span of fruit flies, line w1118, fed SkQ1
# Protocol: Isogenous laboratory Drosophila line w^1118 in which all individuals have the same genotype was chosen for the experiments, thus eliminating the influence of genetic differences between individuals on the results of experiments. The mitochondria-targeted antioxidant SkQ1 at a concentration of 1.85 nM was tested. Stock SkQ solution was diluted in distilled water. Adult flies were administered the compound throughout their lives. Since adult flies can feed on food located on the surface, it was decided to spread the SkQ1 solution of a corresponding concentration on the surface of freshly prepared medium poured into test tubes containing the flies. Virgin females and males of line w^1118 selected during the day were placed in tubes, each tube contained five individuals (males and females separately), in standard medium. In control tubes, 100 μl of distilled water without SkQ was spread on standard medium surface; in test tubes, 100 μl of the test compound at a selected concentration was spread on standard medium surface. The number of live flies in each tube was recorded daily, once a week flies were transferred to a corresponding fresh medium. All tubes were incubated at 25° C. In each experiment, 100 individuals (20 tubes) were analyzed.
# female SHR mice = assay: Age-related changes in estrous function of female SHR mice
# Protocol: (§1) An experiment with outbred SHR mice was carried out. The mice were divided into four groups (25 animals per each group). The three groups received a certain amount of SkQ1 with drinking water throughout their lives, and the fourth (control) group received water without SkQ1. Dose of SkQ1 is given in nanomoles per kg of animal weight per day.
# With increasing the duration of the observation period, tendency of decelerating age-related disorders in estrous function in experimental animals becomes more pronounced, which were expressed as increase in the duration of cycle and lowering the frequency of regular cycles. For example, in the 2nd cohort in 15-month-old experimental animals received SkQ1 at a dose of 0.01 nanomoles per day, the frequency of regular cycles was 94%, whereas in the control—67%.
# rats = assay: Behavioral tests "open field" and "elevated cruciform maze"
# SHR mice = assay: Life span of outbred SHR mice receiving SkQ1 with drinking water; settings: for animals remained alive in 707 days of the experiment: SHR mice, SkQ1 with drinking water lifelong, control 8%
# Protocol: as §1
# (V. N. Anisimov, I. N. Alimova, D. A. Baturin, I. G. Popovich, M. A. Zabezhinski, S. V. Rosenfeld, K. G. Manton, A. V. Semenchenko, A. I. Yashin (2003) Dose-dependent effect of melatonin on life span and spontaneous tumor incidence in female SHR mice. Exp Gerontol. 38, 449-461).
# [1] = system: cat with senile generalized progressive retinal dystrophy; assay: Veterinary clinical trial, senile blindness in a cat; settings: 15 years, daily instillation of 250 nM SkQ1 solution, pH 6.5
# Protocol: A) Patient—cat, breed—European Shorthair, age—15 years. Diagnosis—retinitis, papillitis, senile generalized progressive retinal dystrophy. Clinical signs—depigmentation of t. lucidum, the optic disk (OD) is violet. Retinal detachment. Vision is absent.
# Treatment—daily instillation of 250 nM SkQ1 solution (in physiological solution at pH 6.5).
# OXYS rats [2] = assay: Morris water maze test of learning ability; settings: 16-month-old OXYS rats, 250 nanomoles per kg of body weight since 1.5 months
# Excerpt: The Morris water maze test is actively used for studies on learning and long-term spatial memory in animals. The method of Morris allows to evaluate strategies for behavior, dynamics of skill formation, to detect even weak differences in behavior. This test evaluates the ability of an animal, swimming in the opaque water of the pool and looking at the signs on its sides, to learn how to find the invisible, hidden platform under water, no matter from what point of the perimeter of the pool the animal was released.
# In subsequent experiments, 4 groups of 16-month-old animals: control Wistar and OXYS rats, and groups received the preparation since 1.5 months at a dose of 250 nanomoles per kg of body weight, were used. A latent period of time spent by rats to find the platform depended only on the genotype—it took longer in OXYS rats than in Wistar rats—OXYS rats coped worse with the task.
# OXYS rats [3] = assay: Bone tissue state by X-ray densitometry (osteoporosis); settings: two 45-day courses of 50 nanomoles per kg per day, studied at 6 months
# Protocol: Experiments were conducted on the two lines of rats—Wistar and OXYS. Genetically determined metabolic defect, manifesting itself as decreased resistance of OXYS rats towards oxidative stress, leads to changes in their organism which may be regarded as accelerated ageing syndrome. In particular, reduced bone mineral density in OXYS rats, as compared to Wistar rats, is observed. Such changes are also observed in osteoporosis in humans that allows us to consider these animals as an adequate model of senile osteoporosis in humans.
# Wistar and OXYS rats,—control rats and those who received two courses of SkQ1 (50 nanomoles per kg of body weight per day), were studied. The animals received the preparation since 1.5 and 4 months of age for 45 days. At the age of 6 months, bone tissue state was studied by X-ray densitometry.
# p53 (-/-) mice = assay: Life span of p53 gene knockout mice; settings: 0.1 nmoles per mouse per day (5 nM/kg/day) with drinking water
# Excerpt: Mice lacking the p53 gene (p53−/−) can not synthesize the p53 protein, so-called “guardian of the genome”, and can serve as a model of accelerated ageing and death of the organism caused by cancer [for more details, see A. A. Sablina, A. V. Budanov, G. V. Ilyinskaya, L. S. Agapova, J. E. Kravchenko, P. M. Chumakov (2005) The antioxidant function of the p53 tumor suppressor //Nature Med., 11, 1306-1313)].
# Based on the previously conducted PCR analysis detecting p53−/−, p53+/− and p53+/+ mice in the progeny of heterozygous (p53+/−) animals, the two groups of mice were drawn up which received: • clean drinking water; • water supplemented with SkQ1 (0.1 nmoles of the preparation per mouse per day (5 nM/kg/day)).
# OXYS male rats = assay: Sexual motivation model: male near receptive female behind a barrier; settings: one year old OXYS males
# Excerpt: […] To do this, an experimental model of sexual arousal was used—males were kept under conditions allowing them to see the receptive female, perceive the female's smell, but excluding physical contact with the female. Under these conditions, male rats and male mice show increase in blood testosterone level and typical motivational behavior.
# [4] = system: horse with senile blindness; assay: Veterinary clinical trial, senile blindness in a horse
# Excerpt: B) Patient—horse, gelding, not thoroughbred, age—20 years. Diagnosis—senile blindness associated with degeneration of the retina and its vessels. Clinical signs—shortening and thinning of retinal vessels emanating from the optic disk, depigmentation of t. lucidum t. nigrum, thinning of the retina over the entire surface of eye fundus. As a result, Choroid blood vessels in the form of straight lines are well visualized, posterior polar senile cataract is detected. The animal cannot see during the last eight months.
# Treatment—daily instillation of 250 nM SkQ1 solution (in physiological solution at pH 6.5), and since the 3rd month of treatment—2 times a day.
compound,measurement,setting,value
CC1=C(C)C(=O)C(CCCCCCCCCC[P+](c2ccccc2)(c2ccccc2)c2ccccc2)=CC1=O [SkQ1],fraction of individuals aged 70 days and older,"Drosophila melanogaster; 1.85 nM SkQ1, control 0.18, P=0.0056",0.48
same,average life expectancy,"Drosophila melanogaster; 1.85 nM SkQ1 on medium surface, 25° C., control 58 days, P=0.0012",66 days
same,frequency of regular estrous cycles,"female SHR mice; 2nd cohort, 15-month-old female SHR mice, 0.01 nanomoles per day, control 67%",94%
same,age-related changes in estrous function,"female SHR mice; female SHR mice received SkQ1, compared to the control group",less pronounced age-related changes in estrous function
same,stress-protective effect,rats; Wistar rats,clear stress-protective effect
same,search and exploratory activity of rats,rats; open field and elevated cruciform maze,positive effect
same,animals remained alive in 707 days of the experiment,SHR mice; first of three test groups (dose not given),36%
same,animals remained alive in 707 days of the experiment,SHR mice; second of three test groups (dose not given),28%
same,animals remained alive in 707 days of the experiment,SHR mice; third of three test groups (dose not given),24%
same,life span of SHR mice,"SHR mice; optimal doses (1 nanomole per animal per day), versus control",much longer life span
same,vision after 10 days of the treatment,[1],"the pupil began to respond to light, the cat began to play with the ball and see even small objects"
same,vision after 21 days of the treatment,[1],vision retained
same,ability to learn (latent period to find the platform in the Morris maze),OXYS rats [2],improved the ability of OXYS rats to learn
same,bone mineral density of femur and tibia,OXYS rats [3],reliably increased
same,total mass of bone tissue,OXYS rats [3],reliably increased
same,life span of p53 (-/-) mice,p53 (-/-) mice,dramatic increase of the life span
same,time spent by a male rat near a female rat separated by a barrier,"OXYS male rats; 50 nanomoles of SkQ1, versus control males",reliably increased
same,time spent by a male rat near a female rat separated by a barrier,"OXYS male rats; 250 nanomoles of SkQ1, versus control males",reliably increased
same,vision after 90 days of the treatment,"[4]; 20 years, instillation of 250 nM SkQ1 solution daily, 2 times a day since 3rd month",The vision was restored
same,growth of new blood vessels from the optic disk,[4]; after 90 days of the treatment with 250 nM SkQ1 instillation,40
